Laboratory results as given in US20020051978A1, “Methods and compositions for the identification, assessment, prevention and therapy of human cancers” (priority 2000, published 2002).
Values joined by “and” are separate entries in the source; they are usually repeats but may differ in a detail not shown here. Identical values can stand only once. Like-named read-outs stand apart in the source and are kept apart here.

Experiments:
[1] = tested on: 60 cancer cell lines (NCI 60 cancer cell line series); assay: NCI-DTP in vitro cancer screen, sulforhodamine B (SRB) growth inhibition, 48 hour exposure; type: cell-based, human; set-up: key to sensitivity class Ovarian OVCAR-8 CL6005 / sensitivity class Ovarian SK-OV-3 CL6011 / sensitivity class Prostate DU-145 CL11003 / sensitivity class NSCLC NCI-H522 CL1003 / sensitivity class Ovarian IGROV1 CL6010 / sensitivity class Ovarian OVCAR-4 CL6002 / sensitivity class Prostate PC-3(I) CL11001 / sensitivity class Renal A498 CL9013 / sensitivity class Renal SN12C CL9008: sensitivity class: 1 = Low, 2 = Medium, 3 = High
How it was run: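 Values come from the NCI-DTP screen database: -log GI50, the concentration giving 50% growth inhibition, derived from SRB cell-mass dose-response curves. Each line seeded at its own density, treated day 1 at five ten-fold-spaced doses in duplicate wells, stained after 48 h.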

[2] = tested on: 60 cancer cell lines (NCI 60 cancer cell line series); conditions: cited from earlier work

With CN(Cc1cnc2nc(N)nc(N)c2n1)c1ccc(C(=O)N[C@@H](CCC(=O)O)C(=O)O)cc1 [Methotrexate] the “classification of cell line as Low(1), Medium(2) or High(3) sensitivity to compound” value (from here on “classification of cell line”) ([1]; Breast BT-549 (CL5013)) was 1, the “classification of cell line” value ([1]; Breast HS-578T CL5006) was 1 and the “classification of cell line” value ([1]; Breast MCF7/ADRr (CL5002)) was 2. For the same compound, the “classification of cell line” value ([1]; Breast MDA-MB-231 CL5005) was 1, the “classification of cell line” value ([1]; Breast T-47D (CL5014)) was 1 and the “classification of cell line” value ([1]; CNS SF-268 CL12014) was 2. For the same compound, the “classification of cell line” value ([1]; CNS SF-295 CL12015) was 3, the “classification of cell line” value ([1]; CNS SF-539 CL12016) was 3 and the “classification of cell line” value ([1]; CNS U251(I) CL12009) was 2. For the same compound, the “classification of cell line” value ([1]; Colon COLO-250 CL4010) was 2, the “classification of cell line” value ([1]; Colon HCC-2998 (CL4002)) was 2 and the “classification of cell line” value ([1]; Colon HCT-15 CL4015) was 3. For the same compound, the “classification of cell line” value ([1]; Colon HCT-116 (CL4003)) was 3, the “classification of cell line” value ([1]; Colon KM12 (CL4017)) was 2 and the “classification of cell line” value ([1]; Leukemia HL-60(I) (CL7008)) was 2. For the same compound, the “classification of cell line” value ([1]; Leukemia K562(I) CL7005) was 3, the “classification of cell line” value ([1]; Leukemia RPMI-8226(I) (CL7010)) was 2 and the “classification of cell line” value ([1]; Melanoma LOX IMVI CL10001) was 3. For the same compound, the “classification of cell line” value ([1]; Melanoma SK-MEL-2 (CL10005)) was 1, the “classification of cell line” value ([1]; Melanoma SK-MEL-5 (CL10007)) was 2 and the “classification of cell line” value ([1]; Melanoma SK-MEL-28 (CL10008)) was 1. The “classification of cell line” value ([1]; Melanoma UACC-62 (CL10020)) was 3, the “classification of cell line” value ([1]; NSCLC A549/ATCC (CL1004)) was 3 and the “classification of cell line” value ([1]; NSCLC EKVX (CL1008)) was 1. The “classification of cell line” value ([1]; NSCLC HOP-62 (CL1026)) was 2, the “classification of cell line” value ([1]; NSCLC HOP-92 (CL1029)) was 1 and the “classification of cell line” value ([1]; NSCLC NCI-H226 CL1013) was 1. The “sensitivity class NSCLC NCI-H23(I) CL1001” value ([1]; cell line NSCLC NCI-H23(I), CL1001) was 2, the “sensitivity class NSCLC NCI-H332M CL1017” value ([1]; cell line NSCLC NCI-H332M, CL1017) was 2 and the “sensitivity class NSCLC NCI-H460 CL1021” value ([1]; cell line NSCLC NCI-H460, CL1021) was 3. For the same compound, the “sensitivity class Ovarian IGROV1 CL6010” value ([1]; cell line Ovarian IGROV1, CL6010) was 2, the “sensitivity class Ovarian OVCAR-3 CL6001” value ([1]; cell line Ovarian OVCAR-3, CL6001) was 2 and the “sensitivity class Ovarian OVCAR-4 CL6002” value ([1]; cell line Ovarian OVCAR-4, CL6002) was 1. For the same compound, the “sensitivity class Ovarian OVCAR-5 CL6003” value ([1]; cell line Ovarian OVCAR-5, CL6003) was 2, the “sensitivity class Prostate DU-145 CL11003” value ([1]; cell line Prostate DU-145, CL11003) was 2 and the “sensitivity class Renal A498 CL9013” value ([1]; cell line Renal A498, CL9013) was 1. For the same compound, the “sensitivity class Renal ACHN CL9023” value ([1]; cell line Renal ACHN, CL9023) was 2, the “sensitivity class Renal RXF-393 CL9016” value ([1]; cell line Renal RXF-393, CL9016) was 1 and the “sensitivity class Renal SN12C CL9008” value ([1]; cell line Renal SN12C, CL9008) was 3. The “sensitivity class Renal TK10 CL9024” value ([1]; cell line Renal TK10, CL9024) was 1, the “sensitivity class Renal UO-31 CL9004” value ([1]; cell line Renal UO-31, CL9004) was 2 and the “-Log (GI50)” value ([2]; Breast MCF7/ADRr (CL5002)) was 7.3 and 7.0. The “-Log (GI50)” value ([2]; CNS SF-268 CL12014) was 7.5 and 7.3, the “-Log (GI50)” value ([2]; Colon COLO-250 CL4010) was 6.2 and 6.0 and the “-Log (GI50)” value ([2]; Colon HCC-2998 (CL4002)) was 7.0 and 6.9. The “-Log (GI50)” value ([2]; Colon HT29(I) CL4001) was 7.7 and 7.5, the “-Log (GI50)” value ([2]; Colon KM12 (CL4017)) was 7.4 and 7.3 and the “-Log (GI50)” value ([2]; Colon SW-620 (CL4009)) was 7.2 and 7.5. The “-Log (GI50)” value ([2]; Leukemia CCRF-CEM(I) (CL7003)) was 7.4 and 7.5, the “-Log (GI50)” value ([2]; Leukemia HL-60(I) (CL7008)) was 7.4 and the “-Log (GI50)” value ([2]; Leukemia MOLT-4 (CL7006)) was 7.6 and 7.5. For the same compound, the “-Log (GI50)” value ([2]; Leukemia RPMI-8226(I) (CL7010)) was 6.9 and 7.1, the “-Log (GI50)” value ([2]; Melanoma M14 (CL10014)) was 7.5 and the “-Log (GI50)” value ([2]; Melanoma MALME-3M CL10002) was 5.4 and 5.5. For the same compound, the “-Log (GI50)” value ([2]; Melanoma SK-MEL-5 (CL10007)) was 7.2 and 7.0, the “-Log (GI50)” value ([2]; Melanoma SK-MEL-28 (CL10008)) was 5.3 and 5.4 and the “-Log (GI50)” value ([2]; NSCLC EKVX (CL1008)) was 5.0. The “-Log (GI50)” value ([2]; NSCLC HOP-92 (CL1029)) was 5.1, the “-Log (GI50)” value ([2]; NSCLC NCI-H332M CL1017) was 6.4 and 6.3 and the “-Log (GI50)” value ([2]; Prostate DU-145 CL11003) was 7.6 and 7.3. For the same compound, the “-Log (GI50)” value ([2]; Renal 786-O CL9018) was 7.5.
